According to ChEMBL document CHEMBL1129886, “Novel indole containing thiazolidinedione derivatives as potent euglycemic and hypolipidaemic agents” (1997):

Columns and labels:
Type in all cases: functional
Mus musculus [1] = assay: Percentage reduction in random blood sugar in mice measured on 0th and 3rd day at a dose of 200 mg/kg peroral administration; conditions: route oral
Mus musculus [2] = assay: Percentage reduction in triglyceride measured on 0 and 9th day at a dose of 100 mg/kg
Mus musculus [3] = assay: Percentage reduction in random blood sugar in mice measured on 0th and 6th day at a dose of 200 mg/kg peroral administration; conditions: route oral
Mus musculus [4] = assay: Percentage reduction in random blood sugar in mice measured on 0th and 9th day at a dose of 200 mg/kg peroral administration; conditions: route oral
Mus musculus [5] = assay: Percentage reduction in triglyceride measured on 0 and 9th day at a dose of 200 mg/kg
Mus musculus [6] = assay: Percentage reduction in AUC determined Glucose tolerance test in 18 h fasted animals after feeding 3 g/kg of glucose at a dose of 200 mg/kg peroral administration; conditions: route oral

O=C1NC(=O)C(Cc2ccc(OCCn3c4ccccc4c4ccccc43)cc2)S1 (stereo not given)
Reduction in RBS (Mus musculus [1]): 0%
Reduction in TG (Mus musculus [2]): 21%
Reduction in RBS (Mus musculus [3]): 0%
Reduction in RBS (Mus musculus [4]): 0%

Cc1c(C)c2c(c(C)c1O)CCC(C)(COc1ccc(CC3SC(=O)NC3=O)cc1)O2 (stereo not given) [TROGLITAZONE]
Reduction in TG (Mus musculus [5]): 50%
Reduction in RBS (Mus musculus [1]): 14%
Reduction in RBS (Mus musculus [3]): 16%
Reduction in AUC (Mus musculus [6]): 20%
Reduction in RBS (Mus musculus [4]): 24%

NC(Cc1cn(CCOc2ccc(/C=C3\SC(=O)NC3=O)cc2)c2ccccc12)C(=O)O (stereo not given)
Reduction in RBS (Mus musculus [1]): 0%
Reduction in TG (Mus musculus [2]): 64%
Reduction in RBS (Mus musculus [3]): 29%
Reduction in RBS (Mus musculus [4]): 0%

O=C1NC(=O)/C(=C/c2ccc(OCCn3ccc4ccccc43)cc2)S1
Reduction in TG (Mus musculus [5]): 37%
Reduction in RBS (Mus musculus [1]): 27%
Reduction in RBS (Mus musculus [3]): 40%
Reduction in AUC (Mus musculus [6]): 15%
Reduction in RBS (Mus musculus [4]): 33%

O=C1NC(=O)/C(=C/c2ccc(OCCn3c4ccccc4c4ccccc43)cc2)S1
Reduction in RBS (Mus musculus [1]): 0%
Reduction in TG (Mus musculus [2]): 44%
Reduction in RBS (Mus musculus [3]): 0%
Reduction in RBS (Mus musculus [4]): 0%

O=C1NC(=O)/C(=C/c2ccc(OCCn3cnc4ccccc43)cc2)S1
Reduction in TG (Mus musculus [5]): 76%
Reduction in RBS (Mus musculus [1]): 22%
Reduction in RBS (Mus musculus [3]): 31%
Reduction in RBS (Mus musculus [4]): 33%

O=C1NC(=O)/C(=C/c2ccc(OCCn3c(C(=O)O)cc4ccccc43)cc2)S1
Reduction in TG (Mus musculus [5]): 0%
Reduction in RBS (Mus musculus [1]): 50%
Reduction in RBS (Mus musculus [3]): 39%
Reduction in RBS (Mus musculus [4]): 12%

O=C1NC(=O)C(Cc2ccc(OCCn3ccc4ccccc43)cc2)S1 (stereo not given)
Reduction in TG (Mus musculus [5]): 77%
Reduction in RBS (Mus musculus [1]): 64%
Reduction in RBS (Mus musculus [3]): 48%
Reduction in AUC (Mus musculus [6]): 55%
Reduction in RBS (Mus musculus [4]): 74%
